Assay results published in ChEMBL document CHEMBL1153384, “Synthesis, antimalarial activity, and preclinical pharmacology of a novel series of 4'-fluoro and 4'-chloro analogues of amodiaquine. Identification of a suitable "back-up" compound for N-tert-butyl isoquine” (J Med Chem, 2009).

Key:
[1] = test system: Plasmodium falciparum; assay: Antimalarial activity against […] Plasmodium falciparum PH3; format: functional, organism-based
[2] = Partition coefficient, log P of the compound; format: physicochemical; settings: octanol/water
[3] = Biodistribution in cannulated Wistar rat bile assessed as [3H]labeled drug level at 54 umol/kg, iv after 5 hrs; format: ADME, organism-based; settings: in vivo
[4] = test system: Rattus norvegicus; assay: Metabolic stability in Wistar rat assessed as (2S,3S,4S,5R,6S)-6-{2-[5-(7-Chloro-quinolin-4-ylamino)-2-fluoro-benzylamino]-2-methyl-propionyloxy}-3,4,5-trihydroxy-tetrahydro-pyran-2-carboxylic acid level at 54 umol/kg, iv administered as [3H]labeled drug after 5 hrs; format: ADME, organism-based; settings: in vivo
[5] = Elimination half life in mouse at 10 mg/kg, po administered as single dose; format: ADME, organism-based; design: dose 10 mg/kg, route oral; settings: in vivo, read-out: beta t1/2 (converted)
[6] = biological target: Cytochrome P450 2D6 (Homo sapiens, UniProt P10635); assay: Inhibition of human CYP2D6; format: ADME
Sequence of Cytochrome P450 2D6 (P10635 whole entry): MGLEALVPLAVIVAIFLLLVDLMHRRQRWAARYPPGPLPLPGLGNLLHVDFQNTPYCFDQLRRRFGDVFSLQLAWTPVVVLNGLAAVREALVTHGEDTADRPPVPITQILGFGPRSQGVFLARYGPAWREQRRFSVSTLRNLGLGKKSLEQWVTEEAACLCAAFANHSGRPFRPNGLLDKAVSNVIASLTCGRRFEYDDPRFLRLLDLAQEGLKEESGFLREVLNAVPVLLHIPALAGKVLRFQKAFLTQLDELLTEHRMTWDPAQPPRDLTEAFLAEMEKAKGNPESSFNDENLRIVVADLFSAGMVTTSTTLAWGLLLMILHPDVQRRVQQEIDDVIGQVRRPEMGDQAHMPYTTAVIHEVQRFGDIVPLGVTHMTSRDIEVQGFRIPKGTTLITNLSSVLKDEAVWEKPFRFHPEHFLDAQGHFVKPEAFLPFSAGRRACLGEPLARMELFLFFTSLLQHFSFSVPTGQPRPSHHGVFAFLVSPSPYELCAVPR

[7] = biological target: T1, Cytochrome P450 2C8 (Homo sapiens, UniProt P10632); assay: Inhibition of human CYP2C8; format: ADME
T1 sequence (P10632 whole entry): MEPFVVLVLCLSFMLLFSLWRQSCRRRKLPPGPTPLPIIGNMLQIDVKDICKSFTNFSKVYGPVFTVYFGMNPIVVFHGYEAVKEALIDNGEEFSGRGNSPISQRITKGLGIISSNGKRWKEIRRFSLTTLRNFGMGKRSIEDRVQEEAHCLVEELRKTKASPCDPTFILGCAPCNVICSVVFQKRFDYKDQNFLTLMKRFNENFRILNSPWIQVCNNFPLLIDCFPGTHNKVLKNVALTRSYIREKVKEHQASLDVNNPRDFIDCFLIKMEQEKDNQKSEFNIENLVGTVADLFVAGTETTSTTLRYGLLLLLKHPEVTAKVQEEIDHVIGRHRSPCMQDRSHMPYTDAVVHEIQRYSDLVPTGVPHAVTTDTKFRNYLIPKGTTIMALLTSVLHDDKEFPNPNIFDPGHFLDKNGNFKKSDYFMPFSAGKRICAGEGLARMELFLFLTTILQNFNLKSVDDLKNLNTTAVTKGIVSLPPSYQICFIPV

[8] = Toxicity in po dosed mouse assessed as drug level causing no observed adverse effects administered as once daily for 4 days; format: organism-based; settings: in vivo, read-out: Activity
[9] = test system: Plasmodium berghei; assay: Antimalarial activity as reduced parasitaemia against Plasmodium berghei ANKA infected CD1 mice (Mus musculus) perorally dosed daily over 4 days; format: functional; settings: po, 96 h
[10] = test system: Heme; assay: Binding affinity to heme assessed as binding constant for stepwise binding of 2 equivalent of drug to 1 molecule of heme in presence of 40% DMSO by UV-visible spectroscopy
[11] = test system: Plasmodium falciparum; assay: Antimalarial activity against chloroquine-resistant Plasmodium falciparum K1
[12] = test system: Plasmodium yoelii; assay: Antimalarial activity as minimal concentration for parasite elimination at day 23 against Plasmodium yoelii 17X intravenously inoculated CD1 mice (Mus musculus) dosed 1 hrs post infection then daily for 4 days

Compound `CC(C)(C)NCc1cc(Nc2ccnc3cc(Cl)ccc23)ccc1F` has an IC50 [1] of 0.0258 µM, a logP [2] of 4.74 and an Activity [3] of 9.16 %ID. For the same compound, the Activity [4] was 9.95%, the half-life [5] was 7 h and the IC50 [6] was 0.3 µM. For the same compound, the IC50 [7] was 9.8 µM, the NOAEL at 96 h [8] was 100 mg/kg and the ED50 [9] was 5.3 mg/kg. For the same compound, the ED90 [9] was 12.4 mg/kg, the log Ks [10] was 5.45 and the IC50 [11] was 0.022 µM. The Activity [12] was >40 mg/kg.
